Data from US11931428B2, “Selective hydrogen sulfide probe and uses thereof” (Wake Forest University Health Sciences, priority 2019, dated 2024).

Key:
[1] = Selectivity of fluorescence turn-on towards H2S versus biological thiols and nucleophiles in PBS buffer; details: probe 20 μM
Description: FIG. 1. Fluorescence response (λex: 330 nm) of probes (20 μM) in PBS buffer (pH 7.4), at room temperature, and in the presence of various biological thiols and nucleophiles: (1) PBS buffer alone; (2) 50 μM Na2S; (3) 100 μM cysteine; (4) 1 mM glutathione; (5) 100 μM serine; (6) 100 μM lysine; (7) 1 mM glutathione+50 μM Na2S. (A): Probe AL1 and (B): Probe AL3.
To assess our hypothesis, the selectivity of our design towards H2S was first assessed by incubating AL1 (20 μM) with various biological thiols and nucleophiles in PBS buffer (FIG. 1A). After reacting for 10 min at room temperature, the resulting turn-on response was gauged using fluorescence spectroscopy. The results from this assay were indeed stunning. In the presence of 50 μM Na2S (an H2S equivalent at physiological pH) a greater than 100-fold increase in relative fluorescence intensity was observed. […] Moreover, this assay confirmed that AL1 is not consumed by the presence of other thiols and that its reactivity towards H2S is retained in their presence (FIG. 1A, Column 7). To confirm that the gem-dimethyl group affords enhanced differentiation, we also generated AL3 which lacks the steric shield alpha to the ester carbonyl.

[2] = Stability in PBS buffer over a 24 h incubation period (fluorescence); type: physicochemical
Description: (§1) FIG. 2. Fluorescence response (λex: 330 nm) of probes (20 μM) at room temperature and under varying conditions: (A and B): (1): 24 hour incubation period in PBS buffer alone; (2): 24 hour incubation period in PBS buffer followed by the addition of Na2S (50 μM). (C and D): (1): 10 min incubation period in fetal bovine plasma alone; (2): 10 min incubation period in fetal bovine plasma and in the presence of Na2S (50 μM). AL1: 2A and 2C and AL3: 2B and 2D.
(§2) To further establish the increased durability of AL1 relative to AL3, we tested the stability of both compounds in PBS buffer over a 24 h incubation period (FIGS. 2A and 2B). […] The stability of AL1 and AL3 was also assessed in fetal bovine plasma (FIGS. 2C and 2D).

[3] = Stability in fetal bovine plasma (fluorescence); type: in vitro ADME; details: probe 20 μM
Description: as §1, §2

[4] = Time-dependent and concentration-dependent fluorescence sensing of H2S in PBS buffer; details: AL1 20 μM, Na2S 50 μM, PBS buffer pH 7.4, room temperature
Description: FIG. 3. (A) Time-dependent fluorescence emission (λex: 330 nm) of AL1 (20 μM) in the presence of Na2S (50 μM). (B) Fluorescence intensity (λex: 330 nm) of AL1 ([…]) in response to increasing Na2S concentrations.
The efficiency of AL1 in sensing H2S in PBS buffer (pH 7.4) and at room temperature was also assessed (FIG. 3A). Under these conditions, the resulting fluorescence intensity reached a maximum in less than two minutes, highlighting that our designed probe is not only selective but also highly reactive towards H2S—a necessary feature for detecting analytes which are short-lived. To determine if AL1 could also be used to detect H2S quantitatively in buffer, the resulting fluorescence was measured in response to a series of different concentrations of H2S (FIG. 3B). Indeed, the ensuing fluorescence intensity increased in a linear fashion in the range of 0-20 μM H2S and with a detection limit of 0.05 μM.

[5] = test system: HeLa cells; experiment: Confocal fluorescence imaging of H2S in live HeLa cells; type: cell-based; details: for fluorescence in cells upon treatment with Na2S / fluorescence in cells, probe alone (no Na2S): HeLa, AL2 10 μM; for fluorescence in cells upon treatment with Na2S: 50 μM Na2S, AL1 12.5 μM, ex 405 nm, em 452 nm; for fluorescence in cells, probe alone (no Na2S): AL1 12.5 μM 45 min then washed
Description: FIG. 4. (A) Visualization of H2S in live HeLa cells with AL1 (12.5 μm). Imaging: ex: 405 nm, em: 452 nm. (a and b): No Na2S added (control); (c and d): Addition of Na2S (50 μm). Scale bar is set to 20 μm. (B) Visualization of H2S in live HeLa cells with AL4 (5 μm). Imaging: ex: 561 nm, em: 587 nm. (e and f): No Na2S added (control); g and h: Addition of Na2S (25 μM). Scale bar is set to 20 μm.
FIG. 5. Fluorescence images of live HeLa cells treated with AL2 (10 μM); (a and b): No Na2S (control); (c and d): Addition of Na2S (50 μM); (e and f): Fluorescence images of HeLa cells pretreated with biotin (2 mM) followed by treatments with AL2 (10 μM) and Na2S (50 μM). Imaging: ex: 405 nm, em: 452 nm. Scale bar is set to 20 μm.
Probe AL1 was also shown to be useful in imaging H2S in live cells using confocal microscopy. Cultured HeLa cells were incubated with AL1 (12.5 μM) for 45 min and then washed to remove any excess probe. […] Probe AL4 utilizes resorufin as its latent fluorescent reporter which has the added benefit of longer excitation and emission wavelengths, further boosting its potential in tissue imaging applications.
(§3) As a proof of concept we generated AL2, a cancer cell-specific H2S probe, by coupling biotin to its amine handle (Scheme 1). W. X. Ren et al, Chem. Commun. 2015, 51, 10403-10418; X. Song et al, RSC Adv. 2017, 7, 15817-15822; M. H. Lee et al, Chem. Soc. Rev. 2018, 47, 28-52. Fluorescence imaging experiments were then conducted using both a biotin positive (HeLa) and biotin negative (HEK293) cell line to confirm its selective targeting and delivery. […] To confirm that AL2 was targeting biotin cell surface receptors, in a separate experiment, HeLa cells were pre-treated with biotin prior to the addition of AL2. […] The selectivity of AL2 was further established using HEK293 (noncancerous human embryonic kidney) cells.

[6] = test system: HEK293 cells; experiment: Fluorescence imaging in live HEK293 cells (biotin negative); type: cell-based, human; details: AL2 10 μM, with or without Na2S 50 μM
Description: FIG. 6. Fluorescence images of live HEK293 cells. (a and b): Treatment with AL2 (10 μM) alone; (c and d): Treatment with AL2 (10 μM) followed by treatment with Na2S (50 μM). Imaging: ex: 405 nm, em: 452 nm. Scale bar is set to 20 μm.
as §3

SMILES | increase in relative fluorescence intensity ([1]; 50 μM Na2S, PBS buffer pH 7.4, 10 min, room temperature, λex 330 nm) | reactivity towards H2S in the presence of other thiols ([1]; 1 mM glutathione + 50 μM Na2S, PBS pH 7.4 (FIG. 1A, Column 7)) | selectivity: fluorescence in the presence of other biologically relevant thiols and nucleophiles ([1]; 100 μM cysteine, 1 mM glutathione, 100 μM serine, 100 μM lysine, PBS pH 7.4, 10 min, room temperature) | fluorescence on addition of Na2S after prolonged exposure to buffer ([2]; 24 h in PBS buffer, then Na2S 50 μM) | stability in PBS buffer alone ([2]; probe 20 μM, 24 h incubation, room temperature) | turn-on response in fetal bovine plasma when Na2S present ([3]; 10 min, Na2S 50 μM) | stability in fetal bovine plasma (fluorescence in the absence of Na2S) ([3]; 10 min incubation, room temperature) | time for fluorescence intensity to reach a maximum [4] | fluorescence in cells upon treatment with Na2S [5] | fluorescence in cells, probe alone (no Na2S) [5] | fluorescence in cells pre-treated with biotin, after Na2S ([5]; HeLa pretreated with biotin 2 mM, then AL2 10 μM and Na2S 50 μM) | fluorescence in cells, even upon addition of exogenous Na2S [6]
CC(=O)NCCS[Se]CC(C)(C)C(=O)Oc1ccc2ccc(=O)oc2c1 [AL1] | greater than 100 fold | retained | no increase in fluorescence was detected | impressive turn-on fluorescence | superb stability | marked turn-on response | remarkable stability | less than two | strong blue fluorescence | did not observe any fluorescent cells | – | –
CC(C)(C[Se]SCCNC(=O)CCCC[C@@H]1SC[C@@H]2NC(=O)N[C@@H]21)C(=O)Oc1ccc2ccc(=O)oc2c1 [AL2] | – | – | – | – | – | – | – | – | strong blue fluorescent signal | minimal fluorescence | did not produce any fluorescence | negligible fluorescence
